# In patent publication US20130053435A1, “Methods of Treating Alcohol Intoxication, Alcohol Use Disorders and Alcohol Abuse Which Comprises the Administration of Dihydromyricetin” (priority 2011, published 2013):
# “And” between values parts separate entries of the source, which are not always exact repeats. Equal entries are not always repeated. Where two headings read alike, the source gives them in different places.
# Tests used:
# Plasma [EtOH] assay = assay type: in vivo, rat; settings: two-bottle choice, E+D/water group, end of the fourth week
# Experimental: See Liang (2007). The rat was put into a restraint tube and its tail was warm in about 40° C. The tail vein at the tip of the rail was punched with a sharp blade. Approximately 0.2 ml venous blood was dropped to a capillary blood collection tube containing lithium heparin (Ram Scientific Inc. Yonkers, N.Y.). Blood samples were centrifuged at 2500 rpm for 15 min. The supernatant was collected and stored at −80° C. until assay. The EtOH content of each blood sample was measured in duplicate along with EtOH standards using the alcohol oxidase reaction procedures (GM7 Micro-Stat; Analox Instruments, Lunenberg, Mass.).
# [1] = system: benzodiazepine site of GABAARs; assay: [3H]flunitrazepam binding in rat cortical membrane homogenates
# Experimental: Standard procedures for preparation of rat cortical membranes for radioligand binding assays were conducted as previously described with modifications in speed and number of centrifugation and washes, and buffer compositions. […] Naïve rat cortex was dissected from brain and homogenized in 0.32 M sucrose, 10 mM HEPES buffer (pH 7.4), and centrifuged at 650×g, 4° C. The subsequent supernatant was centrifuged at 150,000×g to collect the desired membrane-containing pellet. The pellet was washed and centrifuged two more times, first using ice-cold water and second using membrane buffer containing 50 mM KH2PO4, 1 mM EDTA, 2 mM benzamidine HCl, 0.5 mM DTT, 0.1 mM benzethonium HCl, 0.01% bacitracin, 0.2 PMSF (pH 7.4), and the resulting pellet was frozen. On the day of binding assay, the pellet was homogenized in assay buffer containing 50 mM KH2PO4, 1 mM EDTA, 200 mM KCl (pH 7.4) and centrifuged, and resuspended in fresh assay buffer to a final protein concentration of 1 mg/ml. […] Specific binding was defined as the total amount bound (zero unlabeled ligand) minus the binding in the presence of 10 μM final concentration flurazepam (Sigma). Data was analyzed with GraphPad Prism 4.0 Software (San Diego, Calif.) to determine IC50 (One-site competition equation) and Hill slope (Sigmoidal Dose-Response equation). Experiments were conducted in triplicate.
# [2] = Metabolic studies in rats; assay type: in vivo, rat; settings: DHM oral administration, 1 mg/kg
# [3] = system: EtOH-induced LORR in rats
# Experimental: See Kakihana R, et al. (1966) Science 154(756):1574-1575). Briefly, after drug injection, rats were placed in the supine position in a V-shaped support. LORR onset time was taken from the endpoint of drug injection (i.p.). LORR duration ended when the animal was able to flip over three times in 30 s. LORR assays were blindly performed. LORR durations were reported as mean (min)±SEM.
# Further LORR assays were conducted as follows.
# Additional pre-treatment and post-treatment experiments were also conducted.
# See Hunkeler, W., et al. (1981) Nature 290:514-516.
# GABAAR α4 subunit = assay: Western blot of hippocampal tissue after 48 hr withdrawal; assay type: in vivo, rat
# Experimental: Parallel Western blots from rat hippocampus were examined to determine whether EtOH induced changes in total protein of GABAAR α4 subunits. Hippocampal tissues from rats were lysed in RIPA-buffer containing 1% Triton X-100, 0.1% sodium dodecyl sulfate (SDS), 50 mM Na3PO4, 150 mM NaCl, 2 mM EDTA, 50 mM NaF, 10 mM sodium pyrophosphate, 1 mM sodium orthovanadate, 1 mM phenylmethylsulfonyl fluoride (PMSF) and Complete protease inhibitor cocktail (Roche). The lysate was centrifuged for 15 min (14,000×g, 4° C.) and the supernatant collected for Western blot analysis. Western blots were performed using rabbit anti-GABAAR α4 (aa 379-421) and mouse anti-β-actin (Sigma) followed by HRP-conjugated secondary antibodies. Bands were detected using ECL detection kit (Amersham) and analyzed by densitometric measurements using ImageQuant 5.2 (Molecular Dynamics). Bands were stripped with buffer containing 62.5 mM Tris-HCl, 100 mM β-mercaptoethanol and 2% SDS (pH 6.7) and reprobed several times. Protein concentrations were determined with BCA Protein Assay Kit (Pierce) according to the manufacturer instructions.
# The total protein content of GABAAR α4 subunit in hippocampus 48 hr after the above 4 treatments was assayed.
# GABAARs = assay: Whole-cell patch-clamp, cultured hippocampal neurons 24 h after EtOH/DHM exposure; assay type: cell-based, rat; settings: 24 h withdrawal
# Experimental: Control neurons were treated with corresponding vehicle as same procedure as EtOH-treated neurons. The concentration of 60 mM EtOH was selected in view of prior experiments. See Liang J et al (2007). Specifically, the concentration of 60 mM EtOH used to treat cultured neurons was chosen to match blood levels measured in adult rats after intoxication with gavage of 5 g/kg, which produced about 60 mM blood peak plasma [EtOH] lasting for about 2 to 3 hr and induced significant plasticity in GABAARs and tolerance.
# Then, immediately before electrophysiological recording, cells grown on coverslips were transferred to a perfusion chamber (Warner Instruments) and visualized with an inverted microscope (TE200, Nikon). Whole-cell patch-clamp recordings were obtained from cultured neurons under voltage-clamp mode at room temperature (22-25° C.), at a holding potential of −70 mV. Cells were perfused with an extracellular solution (137 mM NaCl, 5 mM KCl, 2 mM CaCl2, 1 mM MgCl2, 20 mM glucose and 10 mM HEPES (310-320 Osm, pH adjusted to 7.40 with NaOH)). Glass pipettes were filled with the same internal solution as that in slice recordings, with an input resistance of 4-7 MΩ. GABAAR-mediated mIPSCs were recorded using the same pharmacological method as mentioned above. […] Electrical signals were amplified using a Multiclamp 200 B amplifier (Molecular Devices, USA). After establishing the whole-cell configuration, at least 10 min were allowed to elapse before the application of drug to allow the membrane patch to stabilize and exchange of ions between the recording electrode and the cytosol to occur. Data were acquired with pClamp software (Version 10.0, Molecular Devices, USA), digitized at 20 kHz (Digidata 1440A, Molecular Devices), and analyzed using the Clampfit software (Version 10.0, Molecular Devices) and the Mini Analysis Program (versions 6.0.7, Synaptosoft, Decatur, Ga.) using methods known in the art. See Hamann M, et al. (2002) Neuron 33(4):625-633; Stell B M and Mody I (2002) J Neurosci 22(10): RC223; and Liang (2007).
# [4] = DHM 1 mg/kg i.p. 30 min after EtOH i.p.
# [5] = DHM 1 mg/kg i.p. 30 min prior to EtOH 3 g/kg i.p.
# [6] = neurons treated with EtOH 60 mM + DHM
smiles,measurement,setting,value
"O=C1c2c(O)cc(O)cc2O[C@H](c2cc(O)c(O)c(O)c2)[C@H]1O [DHM, (2R,3R)-3,5,7-trihydroxy-2-(3,4,5-trihydroxyphenyl)-2,3-dihydrochromen-4-one]",plasma [EtOH] vs. E/water group,Plasma [EtOH] assay,significantly lower
same,concentration at which significant inhibition of [3H]flunitrazepam binding starts,[1],0.3 µM
same,IC50,"[1]; [3H]flunitrazepam 1 nM, rat cortex membranes, read-out: IC50, inhibition of [3H]flunitrazepam binding",4.36 µM
same,binding to GABAARs in [3H]flunitrazepam binding assay,[1]; comparative experiments,bind GABAARs
same,"metabolic change (food and water intake, urine volume and stool volume)",[2],no metabolic change
same,LORR duration remaining from DHM injection,[3]; [4],21 ± 2 min and 19 ± 1.0 min
same,"remaining LORR, % of control (E+saline)",[3]; [4],41.2±3.8% and 42%
same,LORR duration (total),[3]; DHM 1 mg/kg i.p. 30 min after EtOH i.p. (b63 prints 3 mg/kg),49 ± 2 min
same,LORR duration,[3]; [5],8 ± 4 min and 8.2 ± 4.1 min
same,"LORR duration, % of control",[3]; [5],10.6±5.9 % of control
same,"LORR duration, % of control",[3]; co-administration DHM 1 mg/kg i.p. with EtOH i.p.,1.2±0.6 % of control
same,LORR duration,[3]; co-injection DHM 3 mg/kg and EtOH 3 g/kg i.p.,2.7 ± 1.7 min
same,EtOH-induced LORR duration in female rats,"[3]; female rats, combined treatment DHM 1 mg/kg i.p. with EtOH 3 g/kg i.p.",reduction
same,total α4 subunit level,GABAAR α4 subunit; DHM group,88.3±10.3 % of control
same,total α4-protein level,GABAAR α4 subunit; EtOH+DHM group,93.0±21.0 % of control
same,GABAAR function after exposure/withdrawal,GABAARs; DHM alone exposure,did not alter GABAAR function
same,Itonic magnitude after acute EtOH (60 mM),GABAARs; [6],25.2±1.2 pA
same,averaged Itonic magnitude,GABAARs; [6],11.2±0.6 pA
same,mIPSC potentiation by EtOH,GABAARs; [6],8.3±9.4%
